Patent US8859463B2, “Method for controlling noxious organisms” (Sumitomo Chemical Company, Limited, priority 2009, dated 2014)

How the values were obtained:
Type in all cases: in vivo
Ipomoea hederacea [1] = assay: Herbicidal activity, corn pot test, Example 16; conditions: azole seed treatment none, saflufenacil 30 g/ha, twelve days after sowing
Method: In a glass container measuring 60 mm in inner diameter and 20 mm in height, 8 μl of a prothioconazole emulsifiable concentrate (emulsifiable concentrate containing 25% prothioconazole, manufactured by Bayer Crop Science Inc. under the trade name of Proline) and 20 corn seeds were placed. The prothioconazole emulsifiable concentrate was adhered to the corn seeds by shaking this plastic cup by hand. In the same manner, 8 μl of a difenoconazole emulsifiable concentrate (emulsifiable concentrate containing 25% difenoconazole, manufactured by Syngenta under the trade name of Score) was adhered to 20 corn seeds. In the same manner, 50 mg of a tebuconazole suspension (suspension containing 20% tebuconazole, manufactured by Hokko Chemical Industry under the trade name of ONLY ONE Flowable) was adhered to 20 corn seeds.
A plastic pot measuring 194 mm in inner diameter and 176 mm in height was filled with the soil. In this pot, 3 corn seeds were sown per 1 pot and 10 seeds of Ipomoea hederacea were sown per 1 pot. […]

Ipomoea lacunosa [2] = assay: Herbicidal activity, corn pot test, Example 59; conditions: pyraclostrobin none, twelve days after sowing
Method: In a glass container measuring 60 mm in inner diameter and 20 mm in height, 8 mg of a pyraclostrobin emulsifiable concentrate (emulsifiable concentrate containing 23.8% pyraclostrobin, manufactured by BASF under the trade name of Comet) and 25 corn seeds were placed. After capping a glass container, the pyraclostrobin emulsifiable concentrate was adhered to the corn seeds by shaking the glass container by hand. In the same manner, 22 mg of the pyraclostrobin emulsifiable concentrate was adhered to the corn seeds.
(§1) A plastic pot measuring 194 mm in inner diameter and 176 mm in height was filled with the soil. In this pot, 2 corn seeds were sown per 1 pot and 10 seeds of Ipomoea lacunosa were sown per 1 pot. On the day of sowing of the corn seeds, after sowing the corn seeds, a water diluted solution (24.5 mg of product/liter) of a flumioxazin granular wettable powder (granular wettable powder containing 51% flumioxazin, manufactured by Valent USA Corporation under the trade name of Valor SX), a water diluted solution (66.7 mg of product/liter) of a sulfentrazone granular wettable powder (granular wettable powder containing 75% sulfentrazone, manufactured by FMC Corporation under the trade name of Cover), a water diluted solution (15 mg/liter) of saflufenacil and a water diluted solution (100 mg/liter) of oxyfluorfen were uniformly sprayed over a surface of the soil in each amount described in Tables 22 to 25, using a sprayer. The water diluted solutions of saflufenacil and oxyfluorfen were prepared by dissolving each predetermined amount of saflufenacil and oxyfluorfen in acetone containing 2% (w/v) Tween 20 and diluting each solution with water so as to adjust the concentration of acetone to 10% by volume.
Twelve days after sowing the seeds of corn and Ipomoea lacunose, herbicidal activity was examined.

Ipomoea lacunosa [3] = assay: Herbicidal activity, corn pot test, Example 76; conditions: metalaxyl-M none, ten days after sowing
Method: In a glass container measuring 60 mm in inner diameter and 20 mm in height, 15 mg of a metalaxyl-M emulsifiable concentrate (emulsifiable concentrate containing 33.3% metalaxyl-M, manufactured by Syngenta under the trade name of Apron XL) and 25 corn seeds were placed. After capping this glass container, the metalaxyl-M emulsifiable concentrate was adhered to the corn seeds by shaking the glass container by hand. In the same manner, 33 mg of the metalaxyl-M emulsifiable concentrate was adhered to the corn seeds.
as §1, with “sulfentrazone” for “sulfentrazone,”, “28” for “22”, “31,” for “25,”
Ten days after sowing the seeds of corn and Ipomoea lacunosa, herbicidal activity was examined.

corn = assay: Phytotoxicity to corn, Example 7; conditions: day 11 after sowing
Method: (§2) The plastic cup was shaken by the hand so as to attach the clothianidin suspension to the corn seeds.
(§3) A soil was packed in a 1/5000a Wagner pot. The above corn seeds. were sown in the Wagner pot at a rate of one seed per pot, and the seeds of Ipomoea hederacea were sown in the pot at a rate of three seeds per pot. […] The aqueous diluted solution of saflufenacil was prepared by dissolving a given amount of saflufenacil in acetone containing 2% (w/v) of Tween 20, and diluting this solution with water to an acetone concentration of 10% (v/v).
(§4) On day 11 after sowing of the seeds of corn and Ipomoea hederacea, the herbicidal effect and phytotoxicity were examined.

Ipomoea hederacea [4] = assay: Herbicidal effect, corn Wagner pot test, Example 7; conditions: day 11 after sowing, scale 0 to 100
Method: as §2, §3, §4

Spodoptera litura [5] = assay: Insecticidal effect (protective value), corn pot test, Example 5; conditions: day 3 after release
Method: (§5) The evaluation of the insecticidal effect was performed by determining the life and death of the insects at the time of the investigation and calculating the protective value according to the following equation; Protective Value (%)=100×(1−T/C) wherein the symbols have the following meanings;
(§6) C: The number of insects at the time of observation in an untreated section: and
(§7) T: The number of insects at the time of observation in a treated section.
(§8) In addition, the clothianidin suspension was attached to the corn seeds in a similar manner except that it was used in an amount of 217.5 μL.
The aqueous diluted solution of saflufenacil was prepared by dissolving a given amount of saflufenacil in acetone containing 2% (w/v) of Tween 20, and diluting this solution with water to an acetone concentration of 10% (v/v).
(§9) Thereafter, the test pot was placed in a greenhouse. On day 22 after corn sowing, 10 fourth-instar larvae of Spodoptera litura were released in the pot and the whole pot was then covered with a nylon cloth.
(§10) On day 3 after release of Spodoptera litura, the insecticidal effect was examined.

Spodoptera litura [6] = assay: Insecticidal effect (protective value), corn pot test, Example 4; conditions: flumioxazin none, day 3 after release
Method: as §5, §6, §7, §8, §9, §10

Ipomoea hederacea [7] = assay: Herbicidal effect, soybean Wagner pot test, Example 6; conditions: clothianidin 73 g/ha; flumioxazin none; day 11 after sowing; scale 0 to 100
Source text: (§11) A soil was packed in a 1/5000a Wagner pot. The above soybean seeds were sown in the Wagner pot at a rate of two seeds per pot, and the seeds of Ipomoea hederacea were sown in the pot at a rate of three seeds per pot.
(§12) On day 11 after sowing of the seeds of soybean and Ipomoea hederacea, the herbicidal effect and phytotoxicity were examined.

Aulacorthum solani [8] = assay: Insecticidal effect (protective value), soybean pot test, Example 1; conditions: clothianidin 44.7 g/ha; flumioxazin none; day 6 after release
Method: as §5, §6, §7
(§13) Thereafter, the test pot was placed in a greenhouse.

Aulacorthum solani [9] = assay: Insecticidal effect (protective value), soybean pot test, Example 3; conditions: day 7 after release
Method: as §5, §6, §7, §13

soybean = assay: Phytotoxicity to soybean, Example 6; conditions: clothianidin 73 g/ha; flumioxazin none; day 11 after sowing
Source text: as §11, §12

Aulacorthum solani [10] = assay: Insecticidal effect (protective value), soybean pot test, Example 2; conditions: thiamethoxam 78.9 g/ha; flumioxazin none; day 6 after release
Method: as §5, §6, §7, §13

[11] = clothianidin none, saflufenacil 32 g/ha
[12] = clothianidin 340 g/ha, saflufenacil none
[13] = clothianidin 605 g/ha, saflufenacil none

CC(C)N(C)S(=O)(=O)NC(=O)c1cc(-n2c(=O)cc(C(F)(F)F)n(C)c2=O)c(F)cc1Cl [Saflufenacil, saflufenacil]
Herbicidal activity on Ipomoea hederacea (Ipomoea hederacea [1]): 88
Herbicidal activity (Ipomoea lacunosa [2]; saflufenacil 30 g/ha): 45
Herbicidal activity (Ipomoea lacunosa [3]; saflufenacil 30 g/ha): 45
Phytotoxicity to Corn (corn; [11]): No harm
Evaluation of Effect on Weeds (Ipomoea hederacea [4]; [11]): 50
Protective Value (Spodoptera litura [5]; [11]): 0%
Protective Value (Spodoptera litura [5]; clothianidin none, saflufenacil 125 g/ha): 0%

CN/C(=N\[N+](=O)[O-])NCc1cnc(Cl)s1 [Clothianidin, clothianidin]
Protective Value (Spodoptera litura [6]; clothianidin 553 g/ha): 30%
Protective Value (Spodoptera litura [6]; clothianidin 984 g/ha): 65%
Evaluation of Effect on Weeds (Ipomoea hederacea [7]): 0
Protective Value (Aulacorthum solani [8]): 59.1%
Phytotoxicity to Corn (corn; [12]): No harm
Phytotoxicity to Corn (corn; [13]): No harm
Evaluation of Effect on Weeds (Ipomoea hederacea [4]; [12]): 0
Evaluation of Effect on Weeds (Ipomoea hederacea [4]; [13]): 0
Protective Value (Aulacorthum solani [9]; clothianidin 55.3 g/ha, sulfentrazone none): 55.2%
Protective Value (Spodoptera litura [5]; clothianidin 272 g/ha, saflufenacil none): 30%
Protective Value (Spodoptera litura [5]; clothianidin 496 g/ha, saflufenacil none): 40%
Phytotoxicity to Soybean (soybean): No harm

Cc1nn(-c2cc(NS(C)(=O)=O)c(Cl)cc2Cl)c(=O)n1C(F)F [Sulfentrazone, sulfentrazone]
Herbicidal activity (Ipomoea lacunosa [2]; sulfentrazone 100 g/ha): 40
Herbicidal activity (Ipomoea lacunosa [3]; sulfentrazone 100 g/ha): 40
Protective Value (Aulacorthum solani [9]; clothianidin none, sulfentrazone 200 g/ha): 0%

CCOc1cc(Oc2ccc(C(F)(F)F)cc2Cl)ccc1[N+](=O)[O-] [Oxyfluorfen, oxyfluorfen]
Herbicidal activity (Ipomoea lacunosa [2]; oxyfluorfen 200 g/ha): 45
Herbicidal activity (Ipomoea lacunosa [3]; oxyfluorfen 200 g/ha): 45

CN1COCN(Cc2cnc(Cl)s2)/C1=N\[N+](=O)[O-] [Thiamethoxam, thiamethoxam]
Protective Value (Aulacorthum solani [10]): 86.9%
